Test systems include SNB-78; DLD-1; RXF 631; M19-MEL; HOP-18; DMS-273; LXFL 529; DMS-114; XF498.
Holding throughout (experiment): DTP human tumour cell line panel, 48 h

The source of these data is ChEMBL document CHEMBL1201862, “PubChem BioAssay data set” (2004).

As a reminder, the GI50 is the concentration at which growth is held to half of that of the control.

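Cultured in 96-well plates, cells were exposed to test compound for 48 hours across five concentrations. The concentration for 50% growth inhibition is given as GI50.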 Active and inactive are the calls of the source. Rule as the data show it: active = GI50 up to about 1.1 µM and inactive = higher.

As to `COc1ccc(C2NC(c3ccc(OC)cc3)C(C)C(=O)C2C)cc1` (stereo unspecified), the GI50 with SNB-78, in the assay with DLD-1, in the assay on RXF 631, with M19-MEL, in the assay with HOP-18 and with DMS-273 was > 100 µM (inactive) throughout. Further, the GI50 with LXFL 529 is > 100 µM (inactive); in the assay with DMS-114, 64.4 µM (inactive).
For the molecule `CS(=O)(=O)NNS(=O)(=O)c1ccc(F)cc1`, the GI50 in the assay with DLD-1, with RXF 631, in the assay on M19-MEL, in the assay with DMS-273, in the assay on LXFL 529 and with DMS-114 was > 100 µM (inactive) throughout.
Consider `CCN(CC)CCC1(C2CCCCC2)CCC(=O)NC1=O` (stereo unspecified), for which the GI50 with SNB-78, in the assay on DLD-1, in the assay on RXF 631, in the assay with M19-MEL, in the assay with XF498 and in the assay with DMS-273 was > 100 µM (inactive) each time. For the same molecule, the GI50 with LXFL 529 and in the assay with DMS-114 was > 100 µM (inactive) throughout.
As for `COc1ccc2c(c1)[n+]([O-])c(-c1ccc(Cl)c(Cl)c1)c(N)[n+]2[O-]`, the GI50 was 53.6 µM (inactive) in the assay on SNB-78; 33.9 µM (inactive) in the assay with DLD-1; 21.3 µM (inactive) in the assay on RXF 631; 28.8 µM (inactive) with M19-MEL; 24.3 µM (inactive) in the assay with HOP-18; 23.8 µM (inactive) in the assay on DMS-273. For the same molecule, the GI50 with LXFL 529 is 35.6 µM (inactive); in the assay on DMS-114, 16.3 µM (inactive).
On to `N=C(N)NS(=O)(=O)c1ccc(NC(=O)c2cccc3c(N)c4ccccc4nc23)cc1`, for which the GI50 in the assay with SNB-78, with DLD-1, in the assay with RXF 631, in the assay on M19-MEL, in the assay with XF498 and with DMS-273 was > 100 µM (inactive) throughout. For the same molecule, the GI50 in the assay on LXFL 529 is 60.1 µM (inactive); with DMS-114 it was 61.2 µM (inactive).
Consider `Cc1cc(C)nc(NS(=O)(=O)c2ccc(Nc3c4ccc(Cl)cc4nc4c(C(=O)Nc5ccc(S(N)(=O)=O)cc5)cccc34)cc2)n1`, for which the GI50 with SNB-78 was 49.9 µM (inactive); in the assay with DLD-1 it was 13.8 µM (inactive); in the assay on RXF 631 it was 18.2 µM (inactive); in the assay with M19-MEL it was 25.4 µM (inactive); in the assay with XF498 it was 18.4 µM (inactive); in the assay with LXFL 529, 23.8 µM (inactive). The GI50 in the assay on DMS-114 was 22.8 µM (inactive).
In the case of `Cc1c(N)nc([C@H](CC(N)=O)NC[C@H](N)C(N)=O)nc1C(=O)N[C@H](C(=O)N[C@H](C)[C@@H](O)[C@H](C)C(=O)N[C@H](C(=O)NCCc1nc(-c2nc(C(=O)NCCC[S+](C)C)cs2)cs1)[C@@H](C)O)C(OC1OC(CO)C(O)C(O)C1OC1OC(CO)C(O)C(OC(N)=O)C1O)c1c[nH]cn1` (stereo partly specified), the GI50 is 20.8 µM (inactive) in the assay on SNB-78; 14.1 µM (inactive) with DLD-1; 0.608 µM (active) with RXF 631; 8.28 µM (inactive) in the assay with M19-MEL; 4.27 µM (inactive) in the assay on HOP-18; 0.776 µM (active) in the assay with XF498. The GI50 is 0.12 µM (active) with DMS-273, 16.9 µM (inactive) in the assay with LXFL 529 and 0.438 µM (active) in the assay on DMS-114.
In the case of `COC(=N)/C(=C1\OC(=N)C(c2ccc(Cl)cc2)=C1O)c1ccc(Cl)cc1`, the GI50 in the assay with SNB-78, in the assay with DLD-1, in the assay with M19-MEL, in the assay on HOP-18, in the assay with XF498 and in the assay on DMS-273 was > 100 µM (inactive) in each case. Also, the GI50 was 74.3 µM (inactive) in the assay on LXFL 529 and > 100 µM (inactive) in the assay on DMS-114.
Regarding `CCCCC1(OC(=O)CCC(=O)O)CCC2(CCC(C)C(C/C=C(C)/C=C/C(O)C(C)/C=C/C(=O)O)O2)OC1CC/C(C)=C/C(=O)O` (stereo unspecified), the GI50 was 2.55 µM (inactive) with SNB-78; 3.25 µM (inactive) in the assay with DLD-1; 1.93 µM (inactive) in the assay with RXF 631; 2.84 µM (inactive) in the assay with M19-MEL; 4.58 µM (inactive) with HOP-18; 2.03 µM (inactive) in the assay with XF498. Further, the GI50 is 5.94 µM (inactive) with DMS-273, 1.8 µM (inactive) with LXFL 529 and 2.45 µM (inactive) with DMS-114.
As for `O=C1NC(=O)/C(=N\c2cccc3c(=O)[nH][nH]c(=O)c23)C(c2nc3ccccc3s2)C1=O` (stereo unspecified), the GI50 is > 100 µM (inactive) in the assay with SNB-78; > 100 µM (inactive) in the assay with DLD-1; > 100 µM (inactive) in the assay on RXF 631; > 100 µM (inactive) with M19-MEL; > 100 µM (inactive) with HOP-18; 32.1 µM (inactive) in the assay on XF498. The GI50 in the assay with DMS-273, in the assay with LXFL 529 and with DMS-114 was > 100 µM (inactive) each time.
Regarding `CC1(C)OCN(c2ccc(Cl)cc2)Cn2c1nc1ccccc12`, the GI50 in the assay with SNB-78 was > 100 µM (inactive); in the assay with DLD-1, 7.6 µM (inactive); in the assay on M19-MEL it was 71 µM (inactive); in the assay with HOP-18, > 100 µM (inactive); in the assay on XF498, 82.4 µM (inactive); in the assay with DMS-273, 1.68 µM (inactive). Besides, the GI50 with LXFL 529 is 1.31 µM (inactive); in the assay with DMS-114 it was 21.2 µM (inactive).
`O=C(CC(=O)N1N=C(n2ccc3ccccc32)CC1c1ccccc1)Nc1cccc(Cl)c1` (stereo unspecified): the GI50 with SNB-78, with DLD-1, in the assay on RXF 631, in the assay on M19-MEL, with HOP-18 and in the assay with DMS-273 was > 100 µM (inactive) in each case. Besides, the GI50 in the assay on LXFL 529 is > 100 µM (inactive).
For `O=c1[nH]cc(COCCO)c(=O)[nH]1`, the GI50 with SNB-78, with DLD-1, with RXF 631, in the assay on M19-MEL, in the assay with HOP-18 and in the assay with XF498 was > 100 µM (inactive) throughout. Also, the GI50 in the assay with DMS-273, in the assay with LXFL 529 and in the assay on DMS-114 was > 100 µM (inactive) in each case.
For the molecule `Cc1c2ccncc2c(C)c2c1[nH]c1ccc(OCC(F)(F)F)cc12`, the GI50 in the assay on SNB-78 was 2.92 µM (inactive); in the assay with DLD-1, 1.57 µM (inactive); with RXF 631, 1.57 µM (inactive); in the assay on M19-MEL, 1.84 µM (inactive); in the assay on XF498 it was 1.61 µM (inactive); in the assay with DMS-273, 0.82 µM (active). Further, the GI50 was 1.2 µM (inactive) in the assay with LXFL 529 and 1.84 µM (inactive) with DMS-114.
Regarding `COc1cc2c[n+](C)c3c4cc5c(cc4ccc3c2cc1OC)OCO5` [NITIDINE CHLORIDE], the GI50 in the assay on SNB-78 was 3.37 µM (inactive); with DLD-1 it was 14.9 µM (inactive); with RXF 631, 19.8 µM (inactive); in the assay on M19-MEL it was 1.27 µM (inactive); in the assay with HOP-18 it was 19.5 µM (inactive); with XF498 it was 2.66 µM (inactive). Besides, the GI50 was 0.745 µM (active) in the assay on DMS-273, 1.4 µM (inactive) in the assay on LXFL 529 and 1.24 µM (inactive) with DMS-114.
